Results reported in patent publication US20170051149A1, “AZOARYLS AS REVERSIBLY MODULATABLE TUBULIN INHIBITORS” (ECOLE NORMALE SUPERIEURE DE LYON, priority 2014, published 2017).

Columns and labels:
Test in all cases: nuclear fragmentation (subG1, Nicoletti), induction of apoptosis
Assay type in all cases: cell-based
HepG2 cells = details: 48 h
Protocol: (§1) Different cell types, including MDA-MB-231, Jurkat, HeLa and HepG2 cells, were treated with indicated concentrations of compound I.1 and exposed to a 390 nm toxic regime, a rescue regime with both 390 nm and 515 nm light, or kept in the dark. Following the treatment, cells were stained with PI and the percentage of cells containing a hypodiploid amount of DNA (subG1 phase of cell cycle), was determined. Briefly, prior to analysis, cells were harvested on ice and incubated in a hypotonic buffer [0.1% sodium citrate, 0.1% Triton X-100 and 50 μg/mL propidium iodide (PI)] for 30 min at 4° C. Following the PI staining cells were analysed by flow cytometry using FACSCalibur flow cytometer (Becton Dickinson, Heidelberg, Germany) and Cell Quest Pro Software (Becton Dickinson).

HeLa cells = details: 30 h
Protocol: as §1

MDA-MB-231 cells = tested on: MDA-MB-231 cells
Protocol: as §1

SMILES: COc1ccc(N=Nc2cc(OC)c(OC)c(OC)c2)cc1O [I.1, 2-methoxy-5-((3,4,5-trimethoxyphenyl)diazenyl)phenol]
- mean % subG1 phase (HepG2 cells; 100 nM, HepG2, 390 nm light (250 ms pulses every 15 s)): 5.4%
- mean % subG1 phase (HepG2 cells; 100 nM, HepG2, dark): 2.5%
- mean % subG1 phase (HepG2 cells; 600 nM, HepG2, 390 nm light (250 ms pulses every 15 s)): 5.2%
- mean % subG1 phase (HepG2 cells; 600 nM, HepG2, dark): 3.1%
- mean % subG1 phase (HepG2 cells; 1 μM, HepG2, 390 nm light (250 ms pulses every 15 s)): 4.6%
- mean % subG1 phase (HepG2 cells; 1 μM, HepG2, dark): 2.3%
- mean % subG1 phase (HepG2 cells; 3 μM, HepG2, 390 nm light (250 ms pulses every 15 s)): 6.5%
- mean % subG1 phase (HepG2 cells; 3 μM, HepG2, dark): 1.9%
- mean % subG1 phase (HepG2 cells; 10 μM, HepG2, 390 nm light (250 ms pulses every 15 s)): 14%
- mean % subG1 phase (HepG2 cells; 10 μM, HepG2, dark): 2.8%
- mean % subG1 phase (HeLa cells; 200 nM, 390 nm light (1 s pulses every 15 min)): 2.4%
- mean % subG1 phase (HeLa cells; 200 nM, dark): 1.8%
- mean % subG1 phase (HeLa cells; 600 nM, 390 nm light (1 s pulses every 15 min)): 6.2%
- mean % subG1 phase (HeLa cells; 600 nM, dark): 2.3%
- mean % subG1 phase (HeLa cells; 1.5 μM, 390 nm light (1 s pulses every 15 min)): 16.1%
- mean % subG1 phase (HeLa cells; 1.5 μM, dark): 2.9%
- mean % subG1 phase (HeLa cells; 5 μM, 390 nm light (1 s pulses every 15 min)): 12.8%
- mean % subG1 phase (HeLa cells; 5 μM, dark): 3.2%
- mean % subG1 phase (MDA-MB-231 cells; 10 nM, 390 nm (350 ms every 5 min), 48 h): 3.6%
- mean % subG1 phase (MDA-MB-231 cells; 10 nM, Dark, 48 h): 6.7%
- mean % subG1 phase (MDA-MB-231 cells; 10 nM, MDA-MB-231, 390 nm only (150 ms pulse every 30 s), 48 h): 0.3%
- mean % subG1 phase (MDA-MB-231 cells; 10 nM, MDA-MB-231, rescue protocol 390 nm + 515 nm (500 ms), 48 h): 0.3%
- mean % subG1 phase (MDA-MB-231 cells; 100 nM, 390 nm (350 ms every 5 min), 48 h): 3.9%
- mean % subG1 phase (MDA-MB-231 cells; 100 nM, MDA-MB-231, 390 nm only (150 ms pulse every 30 s), 48 h): 0.3%
- mean % subG1 phase (MDA-MB-231 cells; 100 nM, MDA-MB-231, dark, 48 hours): 2.1%
- mean % subG1 phase (MDA-MB-231 cells; 100 nM, MDA-MB-231, rescue protocol 390 nm + 515 nm (500 ms), 48 h): 0.4%
- mean % subG1 phase (MDA-MB-231 cells; 100 nM, dark, 48 h): 6.0%
- mean % subG1 phase (MDA-MB-231 cells; 400 nM, 390 nm (350 ms every 5 min), 48 h): 4.2%
- mean % subG1 phase (MDA-MB-231 cells; 400 nM, MDA-MB-231, 390 nm only (150 ms pulse every 30 s), 48 h): 14.0%
- mean % subG1 phase (MDA-MB-231 cells; 400 nM, MDA-MB-231, rescue protocol 390 nm + 515 nm (500 ms), 48 h): 1.7%
- mean % subG1 phase (MDA-MB-231 cells; 400 nM, dark, 48 h): 3.3%
- mean % subG1 phase (MDA-MB-231 cells; 600 nM, 390 nm (350 ms every 5 min), 48 h): 16.8%
- mean % subG1 phase (MDA-MB-231 cells; 600 nM, MDA-MB-231, 390 nm only (150 ms pulse every 30 s), 48 h): 22.9%
- mean % subG1 phase (MDA-MB-231 cells; 600 nM, MDA-MB-231, rescue protocol 390 nm + 515 nm (500 ms), 48 h): 5.4%
- mean % subG1 phase (MDA-MB-231 cells; 600 nM, dark, 48 h): 3.9%
- mean % subG1 phase (MDA-MB-231 cells; 800 nM, 390 nm (350 ms every 5 min), 48 h): 32.1%
- mean % subG1 phase (MDA-MB-231 cells; 800 nM, Dark, 48 h): 3.0%
- mean % subG1 phase (MDA-MB-231 cells; 800 nM, MDA-MB-231, 390 nm only (150 ms pulse every 30 s), 48 h): 19.4%
- mean % subG1 phase (MDA-MB-231 cells; 800 nM, MDA-MB-231, rescue protocol 390 nm + 515 nm (500 ms), 48 h): 11.7%
- mean % subG1 phase (MDA-MB-231 cells; 1 μM, 390 nm (350 ms every 5 min), 48 h): 55.7%
- mean % subG1 phase (MDA-MB-231 cells; 1 μM, MDA-MB-231, 390 nm only (150 ms pulse every 30 s), 48 h): 22.5%
- mean % subG1 phase (MDA-MB-231 cells; 1 μM, MDA-MB-231, dark, 48 hours): 2.0%
- mean % subG1 phase (MDA-MB-231 cells; 1 μM, MDA-MB-231, rescue protocol 390 nm + 515 nm (500 ms), 48 h): 15.3%
- mean % subG1 phase (MDA-MB-231 cells; 1 μM, dark, 48 h): 3.1%
